These are literature values, as cited in US20120093738A1, “TASTE-MASKED ORAL FORMULATIONS OF INFLUENZA ANTIVIRALS” (Rubicon Research Private Limited, priority 2009, published 2012).

The conditions of this data set: reconstituted multi-dose suspensions.

For the molecule `CCOC(=O)C1=C[C@@H](OC(CC)CC)[C@H](NC(C)=O)[C@@H](N)C1` [oseltamivir phosphate], the “time within which the suspension needs to be used” value is given as no more than 10 days.
